Patent US11607414B2, “Small molecule inhibitors of EGFR and PI3K” (The Regents of the University of Michigan, priority 2014, dated 2023)

Experiments:
[1] = biological target: panel of 39 kinases (tyrosine, serine/threonine and lipid kinases); assay: Broad panel of 39 kinases at 10 μM; assay type: biochemical
Description: Numerous hits were designed with nanomolar potency against EGFR and PIK3CA. […] A structure-activity relationship was shown for these agents against both of the biochemical targets.

[2] = test system: phosphorylation of EGFR in HCT-116 tumors; assay: In vivo pharmacodynamics in subcutaneous HCT-116 tumors, pEGFR; conditions: intraperitoneal 100 mg/kg
Description: (§1) However, additional synthesis of MOL-162 is needed to allow a full pharmacodynamic time course study to be carried out to determine the maximal degree of target inhibition of both targets after single and repeated daily dosing.

[3] = biological target: EGFR (Homo sapiens, UniProt P00533); assay: Z'-LYTE biochemical kinase assay, EGFR; conditions: read-out: potency against EGFR
Sequence of EGFR (P00533 25-1210): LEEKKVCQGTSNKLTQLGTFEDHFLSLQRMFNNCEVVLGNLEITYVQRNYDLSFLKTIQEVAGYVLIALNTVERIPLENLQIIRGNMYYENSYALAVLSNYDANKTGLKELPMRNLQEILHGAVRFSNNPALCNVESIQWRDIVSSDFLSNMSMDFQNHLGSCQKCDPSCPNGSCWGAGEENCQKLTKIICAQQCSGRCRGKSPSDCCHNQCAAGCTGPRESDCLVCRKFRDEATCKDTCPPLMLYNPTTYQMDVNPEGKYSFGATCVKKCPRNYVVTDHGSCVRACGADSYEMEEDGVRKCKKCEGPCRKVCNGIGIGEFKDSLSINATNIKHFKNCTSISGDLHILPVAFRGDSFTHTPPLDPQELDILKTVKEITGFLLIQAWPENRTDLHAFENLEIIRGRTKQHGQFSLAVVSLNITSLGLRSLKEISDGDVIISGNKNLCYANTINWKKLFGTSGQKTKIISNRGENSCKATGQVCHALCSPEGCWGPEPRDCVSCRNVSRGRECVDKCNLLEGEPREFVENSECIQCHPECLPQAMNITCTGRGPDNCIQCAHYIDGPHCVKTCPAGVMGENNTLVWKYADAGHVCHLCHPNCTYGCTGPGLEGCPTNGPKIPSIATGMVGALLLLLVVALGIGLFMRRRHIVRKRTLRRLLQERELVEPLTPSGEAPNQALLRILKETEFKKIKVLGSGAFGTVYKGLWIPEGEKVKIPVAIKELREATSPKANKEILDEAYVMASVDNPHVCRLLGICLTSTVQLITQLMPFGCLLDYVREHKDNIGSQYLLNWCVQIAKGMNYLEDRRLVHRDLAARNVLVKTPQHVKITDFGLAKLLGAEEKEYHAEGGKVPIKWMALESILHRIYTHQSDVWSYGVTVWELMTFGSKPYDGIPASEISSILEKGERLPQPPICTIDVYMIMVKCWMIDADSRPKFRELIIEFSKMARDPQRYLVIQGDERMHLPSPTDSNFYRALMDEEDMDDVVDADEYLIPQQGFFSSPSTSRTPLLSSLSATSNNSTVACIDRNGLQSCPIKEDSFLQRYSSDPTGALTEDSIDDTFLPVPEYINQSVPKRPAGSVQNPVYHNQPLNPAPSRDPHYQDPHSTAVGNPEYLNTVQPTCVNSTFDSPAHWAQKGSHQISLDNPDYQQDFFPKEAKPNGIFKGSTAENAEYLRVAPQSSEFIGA
Method: Various compounds were tested for their ability to inhibit EGFR and PIK3CA. The assays determining inhibitions are given in Example 2 Assays-Z′-LYTE® and ADAPTA.
Assays: The Z′-LYTE® biochemical assay employs a fluorescence-based, coupled-enzyme format and is based on the differential sensitivity of phosphorylated and non-phosphorylated peptides to proteolytic cleavage (FIG. 6). The peptide substrate is labeled with two fluorophores—one at each end— that make up a FRET pair. In the primary reaction, the kinase transfers the gamma-phosphate of ATP to a single tyrosine, serine or threonine residue in a synthetic FRET-peptide. […] A ratiometric method, which calculates the ratio (the Emission Ratio) of donor emission to acceptor emission after excitation of the donor fluorophore at 400 nm, is used to quantitate reaction progress.
A significant benefit of this ratiometric method for quantitating reaction progress is the elimination of well-to-well variations in FRET-peptide concentration and signal intensities. […]
Both cleaved and uncleaved FRET-peptides contribute to the fluorescence signals and therefore to the Emission Ratio. The extent of phosphorylation of the FRET-peptide can be calculated from the Emission Ratio. […]
Bar-coded Corning, low volume NBS, black 384-well plate (Corning Cat. 4514) 1. […] Read on fluorescence plate reader and analyze the data.

[4] = test system: phosphorylation of AKT in HCT-116 tumors; assay: In vivo pharmacodynamics in subcutaneous HCT-116 tumors, pAKT; conditions: intraperitoneal 100 mg/kg
Description: as §1

[5] = Tolerability in xenograft-bearing mice; assay type: in vivo; conditions: oral, daily for 10 days at 20 and 100 mg/kg
Description: (§2) FIGS. 8A, 8B, 8C, 8D, and 8E show in vivo efficacy of MOL-201 against, HCT-116, A431, COL-205, SK-MEL5 and MDA-MB-468 xenografts. […] The method is outlined in Example 2—Xenograft Studies.
(§3) Female 6-7 week old NCR nude mice (CrTac:NCr-Foxn1nu from Taconic), 6-7 weeks old, were implanted subcutaneously with 1×10^6 to 1×10^7 cells in a 1:1 serum-free media/Matrigel® mixture into the region of the right axilla. Mice were randomized into treatment groups and treatments initiated when tumors reached 100 to 200 mg. MTX-201 was administered daily for 10 days by oral gavage as a clear yellow solution in 5% DMSO/95% PEG300, based upon individual animal body weight (0.2 ml/20 g). Subcutaneous tumor volume and body weights were measured two to three times a week. Tumor volumes were calculated by measuring two perpendicular diameters with calipers and using the formula: tumor volume=(length×width2)/2. Mice were held following cessation of treatment until tumor burdens reached −1000 mg, to allow for calculation of tumor growth delay. Percent treated/control (% T/C) was calculated by dividing the median treated tumor weight by the median control tumor weight and multiplying by 100 on the last day of treatment. Tumor growth delay (T-C) was calculated by subtracting the median time to reach evaluation size (750 mg) of the treated group by the median time to evaluation size of the control group. […]

[6] = test system: HCT-116 xenografts; assay: Xenograft study, HCT-116; assay type: in vivo, NCR nude mice; conditions: higher dose (100 mg/kg), daily for 10 days, oral
Description: as §2, §3

[7] = test system: HCT-116, A431, COL-205, SK-MEL5 and MDA-MB-468 xenografts; assay: Xenograft studies, model not stated for the lower dose; assay type: in vivo, NCR nude mice; conditions: lower dose of 20 mg/kg
Description: as §2, §3

[8] = test system: NCI-60 cell panel; assay: NCI-60 COMPARE panel, one-dose % growth; assay type: cell-based, human; conditions: 10 μM
Method: The method is outlined in Example 2—NCI COMPARE Panel.
The human tumor cell lines of the cancer screening panel are grown in RPMI 1640 medium containing 5% fetal bovine serum and 2 mM L-glutamine. For a typical screening experiment, cells are inoculated into 96 well microtiter plates in 100 μL at plating densities ranging from 5,000 to 40,000 cells/well depending on the doubling time of individual cell lines. After cell inoculation, the microtiter plates are incubated at 37° C., 5% CO2, 95% air and 100% relative humidity for 24 h prior to addition of experimental drugs. […]
Following drug addition, the plates are incubated for an additional 48 h at 37° C., 5% CO2, 95% air, and 100% relative humidity. […] Bound stain is subsequently solubilized with 10 mM trizma base, and the absorbance is read on an automated plate reader at a wavelength of 515 nm. […] Using the seven absorbance measurements [time zero, (Tz), control growth, (C), and test growth in the presence of drug at the five concentration levels (Ti)], the percentage growth is calculated at each of the drug concentrations levels. Percentage growth inhibition is calculated as: [(Ti−Tz)/(C−Tz)]×100 for concentrations for which Ti>/=Tz [(Ti−Tz)/Tz]×100 for concentrations for which Ti<Tz. […]

[9] = test system: SK-MEL5 xenografts; assay: Xenograft study, SK-MEL5; assay type: in vivo, NCR nude mice; conditions: higher dose (100 mg/kg), daily for 10 days, oral
Description: as §2, §3

[10] = test system: COL-205 xenografts; assay: Xenograft study, COL-205; assay type: in vivo, NCR nude mice; conditions: higher dose (100 mg/kg), daily for 10 days, oral
Description: as §2, §3

[11] = test system: A431 xenografts; assay: Xenograft study, A431; assay type: in vivo, NCR nude mice; conditions: higher dose (100 mg/kg), daily for 10 days, oral
Description: as §2, §3

COc1ccc(Nc2ncnc3ccc(-c4cncc(NS(C)(=O)=O)c4)cc23)cc1Cl [MOL-153, N-(5-(4-((3-chloro-4-methoxyphenyl)amino)quinazolin-6-yl)pyridin-3-yl)methanesulfonamide]
kinase profile (in words) [1]: clean kinase profile
inhibition of pEGFR in tumors [2]: not detected
IC50 [3]: 349 nM
inhibition of pAKT in tumors [4]: inhibition of pAKT

CS(=O)(=O)Nc1cc(-c2ccc3ncnc(Nc4cccc(Cl)c4)c3c2)cnc1Cl [MOL-201, N-(2-chloro-5-(4-((3-chlorophenyl)amino)quinazolin-6-yl)pyridin-3-yl)methanesulfonamide]
tolerability [5]: well tolerated by mice with no clinical observations of toxicity
anti-tumor activity (T/C and T-C) [6]: Anti-tumor activity observed
anti-tumor activity [7]: elicited anti-tumor activity
% growth in NCI-60 panel (in words) [8]: broad cell kill
anti-tumor activity (T/C and T-C) [9]: Anti-tumor activity observed
anti-tumor activity (T/C and T-C) [10]: Anti-tumor activity observed
anti-tumor activity (T/C and T-C) [11]: Anti-tumor activity observed
